# Test results reported in ChEMBL document CHEMBL1201862, “PubChem BioAssay data set” (2004).
# Calls of active or inactive are those of the source.
# Legend:
# [1] = biological target: T1, Microphthalmia-associated transcription factor (Homo sapiens, UniProt O75030); experiment: reducers of TRPM1 reporter luminescence, concentration series – cell-based, SK-MEL-5, cherry-picked, set 3, MITF inhibitor project, dose response (AID 493073); format: functional;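 also: SK-MEL-5 melanoma cells with luciferase driven by the MITF target TRPM1 promoter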
# T1 sequence (O75030 whole entry): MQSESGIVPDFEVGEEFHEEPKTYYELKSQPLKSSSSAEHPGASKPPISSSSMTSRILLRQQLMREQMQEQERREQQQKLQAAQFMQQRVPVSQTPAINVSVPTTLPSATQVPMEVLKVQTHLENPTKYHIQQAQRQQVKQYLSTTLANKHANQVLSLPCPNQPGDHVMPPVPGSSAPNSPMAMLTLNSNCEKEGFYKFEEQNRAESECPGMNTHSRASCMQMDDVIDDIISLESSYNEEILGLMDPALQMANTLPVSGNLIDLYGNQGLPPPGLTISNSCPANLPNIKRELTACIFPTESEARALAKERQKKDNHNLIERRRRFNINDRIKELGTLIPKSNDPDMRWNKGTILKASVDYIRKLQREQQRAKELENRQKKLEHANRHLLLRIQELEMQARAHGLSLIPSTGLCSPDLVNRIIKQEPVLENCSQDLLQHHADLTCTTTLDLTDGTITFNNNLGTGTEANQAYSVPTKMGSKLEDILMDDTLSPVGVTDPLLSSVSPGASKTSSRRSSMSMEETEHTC
# [2] = biological target: T2, Heat shock factor protein 1 (Mus musculus, UniProt P38532); experiment: enhancement of HSF1-driven luciferase signal – cell-based, NIH3T3, luminescence, dose retest, confirmation (AID 435004); format: functional;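 also: stress induced by proteasome inhibitor MG132 added 30 min after compound; luciferase reporter driven by HSF1 response element in NIH3T3 cells; actives raise luminescence as potentiators of the MG132 stress response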
# T2 sequence (P38532 whole entry): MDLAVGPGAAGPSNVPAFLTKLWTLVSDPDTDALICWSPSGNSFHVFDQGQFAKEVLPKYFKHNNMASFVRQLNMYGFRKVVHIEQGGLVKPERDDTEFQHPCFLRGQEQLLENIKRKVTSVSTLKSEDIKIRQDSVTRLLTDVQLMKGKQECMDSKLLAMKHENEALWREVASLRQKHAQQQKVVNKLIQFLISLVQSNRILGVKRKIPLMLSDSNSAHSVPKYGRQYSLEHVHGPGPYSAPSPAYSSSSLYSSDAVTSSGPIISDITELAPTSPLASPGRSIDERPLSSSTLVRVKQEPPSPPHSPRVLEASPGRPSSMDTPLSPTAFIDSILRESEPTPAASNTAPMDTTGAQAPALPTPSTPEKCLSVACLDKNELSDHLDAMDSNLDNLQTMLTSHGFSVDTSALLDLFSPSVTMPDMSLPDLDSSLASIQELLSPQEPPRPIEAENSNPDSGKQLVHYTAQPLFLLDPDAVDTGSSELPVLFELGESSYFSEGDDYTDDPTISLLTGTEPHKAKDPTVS
# [3] = reduction of Shn3 3'UTR-driven luciferase in osteoblasts – cell-based, Clone20 osteoblasts, firefly luciferase, cherry-picked, dose response (AID 624132); format: functional;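 also: firefly luciferase luminescence from reporter carrying the Shn3 3'UTR in osteoblasts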
# [4] = loss of viability in HepG2 cells – cell-based, CellTiter-Glo, cherry-picked, cytotoxicity control for Shn3 inhibitor project, dose response (AID 624134); format: functional
# [5] = non-specific 3'UTR reporter inhibition in Clone20-Shn3RL – cell-based, Renilla luciferase, cherry-picked, counter-screen for Shn3 inhibitor project, dose response (AID 624133); format: functional
# [6] = Luminescence Cell-Based Dose Confirmation HTS to Identify Activators of 5'UTR Stem-Loop Driven Alpha-Synuclein mRNA Translation in H4 Neuroglioblastoma Cells. [Related pubchem assays: 1829 (Project Summary), 1814 (Primary HTS)]; format: functional
# [7] = Luminescence Cell-Based Dose Response HTS to Identify Activators of Luciferase Translation or Activity in H4 […] Cells. [Related pubchem assays: 1829 (Project Summary), 1814 (Primary HTS)]; format: functional
# [8] = tested on: H4; experiment: Luminescence Cell-Based Dose Response HTS to Identify Activators of 5'UTR Stem-Loop Driven Prion Protein mRNA Translation in H4 Neuroglioblastoma Cells. [Related pubchem assays: 1829 (Project Summary), 1814 (Primary HTS)]; format: functional; settings: Homo sapiens
# [9] = biological target: T3, Rac GTPase-activating protein 1 (Homo sapiens, UniProt Q9H0H5); experiment: blockers of MgcRacGAP-driven Rac1 GTP hydrolysis – biochemical, ADP Hunter fluorescence, primary and confirmatory, confirmation (AID 624330); format: functional
# T3 sequence (Q9H0H5 whole entry): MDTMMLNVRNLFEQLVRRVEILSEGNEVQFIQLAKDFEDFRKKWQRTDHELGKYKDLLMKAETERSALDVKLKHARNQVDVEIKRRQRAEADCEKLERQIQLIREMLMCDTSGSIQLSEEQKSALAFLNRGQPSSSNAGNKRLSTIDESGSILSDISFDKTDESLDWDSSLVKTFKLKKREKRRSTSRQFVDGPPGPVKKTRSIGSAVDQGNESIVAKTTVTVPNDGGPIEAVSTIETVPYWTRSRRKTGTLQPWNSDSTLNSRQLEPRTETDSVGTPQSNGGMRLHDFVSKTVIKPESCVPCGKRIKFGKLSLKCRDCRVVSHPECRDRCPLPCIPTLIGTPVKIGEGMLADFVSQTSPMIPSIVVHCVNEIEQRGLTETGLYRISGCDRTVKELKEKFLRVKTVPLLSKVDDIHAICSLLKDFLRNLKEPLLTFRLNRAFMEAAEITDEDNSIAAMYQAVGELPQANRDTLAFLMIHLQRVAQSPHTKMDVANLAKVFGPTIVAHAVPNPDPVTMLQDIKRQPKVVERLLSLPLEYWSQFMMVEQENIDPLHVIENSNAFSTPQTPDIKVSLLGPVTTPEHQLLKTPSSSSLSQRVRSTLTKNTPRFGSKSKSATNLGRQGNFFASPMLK
# [10] = biological target: Prothrombin (Homo sapiens, UniProt P00734); experiment: Thrombin 1536 HTS Dose Response Confirmation. [Related pubchem assays: 1046 (Thrombin 1536 HTS; hits were confirmed in this assay)]; format: functional
# [11] = biological target: T4, Ubiquitin-conjugating enzyme E2 N (Homo sapiens, UniProt P61088); format: functional;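 also: Dose-response confirmation in a TR-FRET assay detecting UBC13-driven polyubiquitin chain formation, inhibition measured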
# T4 sequence (P61088 whole entry): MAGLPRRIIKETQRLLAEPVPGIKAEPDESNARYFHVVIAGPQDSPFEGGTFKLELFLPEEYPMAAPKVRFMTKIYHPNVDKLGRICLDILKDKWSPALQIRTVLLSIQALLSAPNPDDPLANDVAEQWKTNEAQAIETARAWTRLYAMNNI
# [12] = luciferase reporter signal suppression in cells – H4 neuroglioma cells, luminescence, dose response (AID 1990); format: functional, cell-based
# [13] = Luminescence Cell-Based Dose Response HTS to Identify Inhibitors of 5'UTR Stem-Loop Driven Prion Protein mRNA Translation in H4 Neuroglioblastoma Cells. [Related pubchem assays: 1827 (Project Summary), 1813 (Primary HTS)]; format: functional
# [14] = alpha-synuclein stem-loop luciferase translation blockers – H4 neuroglioma cells, luminescence, confirmation (AID 1988); format: functional, cell-based
# [15] = NIH-3T3 fibroblast cytotoxicity, dose response, cytotoxicity control, cell-based, fluorescence, Alamar Blue, secondary assay (AID 2327); format: functional;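 also: NIH-3T3 mouse fibroblasts cultured with fluconazole at 8 µg/mL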
# [16] = fluconazole-exposed Candida albicans growth modulators – fluorescence, retest, confirmation (AID 2467); format: functional, cell-based
# [17] = THP-1 cell cytotoxicity, dose response, cytotoxicity control for non-replicating M. tuberculosis project (AID 489025); format: functional
# [18] = cells; format: functional
# [19] = biological target: Cytochrome P450 3A4 (Homo sapiens, UniProt P08684);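 also: CYP3A4 tested as one member of a cytochrome P450 panel screen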
# Sequence of Cytochrome P450 3A4 (P08684 whole entry): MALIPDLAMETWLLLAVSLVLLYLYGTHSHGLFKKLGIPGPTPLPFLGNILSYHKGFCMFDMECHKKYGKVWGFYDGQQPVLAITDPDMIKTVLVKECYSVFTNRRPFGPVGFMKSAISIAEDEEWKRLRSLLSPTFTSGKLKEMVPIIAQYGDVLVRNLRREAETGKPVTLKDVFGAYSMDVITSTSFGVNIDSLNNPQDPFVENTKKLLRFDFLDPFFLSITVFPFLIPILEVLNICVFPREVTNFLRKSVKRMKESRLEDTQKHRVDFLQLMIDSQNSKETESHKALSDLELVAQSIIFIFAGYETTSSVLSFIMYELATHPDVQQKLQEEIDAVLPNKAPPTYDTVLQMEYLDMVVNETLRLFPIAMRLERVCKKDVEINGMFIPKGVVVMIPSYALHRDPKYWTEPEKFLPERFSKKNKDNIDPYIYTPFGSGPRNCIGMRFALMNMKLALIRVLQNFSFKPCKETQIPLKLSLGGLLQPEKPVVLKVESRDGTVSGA
# [20] = biological target: T5, Replicative DNA helicase DnaB (Mycobacterium tuberculosis, UniProt P9WMR3); experiment: DnaB intein splicing inhibitors, dose response, biochemical, cell-free fluorescence (AID 449749); format: functional
# T5 sequence (P9WMR3 whole entry): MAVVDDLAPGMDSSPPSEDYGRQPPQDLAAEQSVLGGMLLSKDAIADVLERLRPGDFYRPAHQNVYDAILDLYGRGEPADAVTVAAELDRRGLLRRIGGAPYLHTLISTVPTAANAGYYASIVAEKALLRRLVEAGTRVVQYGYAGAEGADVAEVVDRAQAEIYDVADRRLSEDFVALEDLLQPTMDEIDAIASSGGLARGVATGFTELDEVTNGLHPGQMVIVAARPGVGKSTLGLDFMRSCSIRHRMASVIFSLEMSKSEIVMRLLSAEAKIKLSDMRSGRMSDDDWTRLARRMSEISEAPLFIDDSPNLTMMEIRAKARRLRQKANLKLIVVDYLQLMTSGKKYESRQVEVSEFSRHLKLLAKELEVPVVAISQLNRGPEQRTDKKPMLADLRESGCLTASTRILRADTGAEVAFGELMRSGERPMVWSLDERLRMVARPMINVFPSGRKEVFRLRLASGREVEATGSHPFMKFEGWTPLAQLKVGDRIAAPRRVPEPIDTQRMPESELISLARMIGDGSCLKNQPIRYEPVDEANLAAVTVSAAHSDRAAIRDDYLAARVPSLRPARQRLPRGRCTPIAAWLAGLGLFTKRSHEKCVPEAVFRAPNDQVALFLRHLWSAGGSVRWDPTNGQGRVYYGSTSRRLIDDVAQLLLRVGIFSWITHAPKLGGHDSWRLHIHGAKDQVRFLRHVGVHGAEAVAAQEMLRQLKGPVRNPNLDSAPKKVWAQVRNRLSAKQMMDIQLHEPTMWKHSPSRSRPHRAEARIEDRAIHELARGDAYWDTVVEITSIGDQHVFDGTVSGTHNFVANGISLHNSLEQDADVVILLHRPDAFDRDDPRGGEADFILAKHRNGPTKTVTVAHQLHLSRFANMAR
# [21] = biological target: T6, Protein RecA (Mycobacterium tuberculosis, UniProt P9WHJ3); experiment: Fluorescence Cell-Free Homogeneous Dose Retest to Identify Inhibitors of RecA-Intein Splicing Activity. [Related pubchem assays (depositor defined):AID2097, AID2223, AID489010, AID492950]; format: functional
# T6 sequence (P9WHJ3 whole entry): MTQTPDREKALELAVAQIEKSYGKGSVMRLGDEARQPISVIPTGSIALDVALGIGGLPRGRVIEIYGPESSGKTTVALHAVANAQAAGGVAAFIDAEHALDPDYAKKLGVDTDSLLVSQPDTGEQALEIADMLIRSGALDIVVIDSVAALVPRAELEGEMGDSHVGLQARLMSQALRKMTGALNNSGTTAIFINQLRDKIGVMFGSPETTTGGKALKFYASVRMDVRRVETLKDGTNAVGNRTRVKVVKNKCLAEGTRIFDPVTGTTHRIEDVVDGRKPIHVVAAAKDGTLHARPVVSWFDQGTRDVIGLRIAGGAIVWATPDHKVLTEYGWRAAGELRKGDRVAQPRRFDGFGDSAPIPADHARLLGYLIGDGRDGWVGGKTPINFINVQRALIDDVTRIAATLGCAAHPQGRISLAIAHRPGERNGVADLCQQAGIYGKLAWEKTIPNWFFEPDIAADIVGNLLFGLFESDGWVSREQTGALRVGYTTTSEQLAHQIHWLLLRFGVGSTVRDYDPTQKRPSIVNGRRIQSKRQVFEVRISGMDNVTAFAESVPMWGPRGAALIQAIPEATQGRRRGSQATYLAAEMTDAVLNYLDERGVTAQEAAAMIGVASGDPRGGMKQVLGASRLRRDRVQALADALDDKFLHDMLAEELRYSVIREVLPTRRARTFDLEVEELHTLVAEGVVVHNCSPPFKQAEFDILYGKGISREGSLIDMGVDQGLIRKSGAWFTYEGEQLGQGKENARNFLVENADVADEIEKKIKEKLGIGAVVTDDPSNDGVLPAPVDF
# [22] = tested on: INS1; experiment: INS-1E survival protection against cytokine death – cell-based, luminescence, retest, dose response (AID 449756); format: functional; settings: Rattus norvegicus;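 also: cell death triggered by IL-1 beta plus TNF-alpha plus IFN-gamma mixture; protective hits raise ATP signal compared with cytokine alone wells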
smiles,measurement,setting,value
O=C(O)c1ccc(C(=O)Nc2ccc(F)cc2)cc1,AC50,[1],19.8 µM (active)
Cc1cccc(N2CCN(C(=O)CSCc3c(C)noc3C)CC2)c1C,EC50,[2],243 µM (active)
same,AC50,[3],2.41 µM (active)
same,AC50,[4],36.3 µM (active)
same,AC50,[5],3.48 µM (active)
COC(=O)[C@]1(C)CCC[C@@]2(C)C3CC[C@@]4(C)C[C@]3(CCC21)CC(=O)N4Cc1ccc(OC)cc1 (some centres undefined),AC50,[3],8.16 µM (active)
same,AC50,[4],> 70 µM (inactive)
same,AC50,[5],10.6 µM (active)
COc1ccc2cc(OCC(=O)NNC(=O)Nc3ccc(C(C)=O)cc3)ccc2c1,EC50,[6],12.4 µM (active)
same,EC50,[7],33.4 µM (active)
same,EC50,[8],20.3 µM (active)
same,IC50,[9],239 µM (active)
COCCCNC(=O)/C(=C\c1cccn1C)NC(=O)c1cccs1,IC50,[10],> 50 µM (inconclusive)
O=C(NCC1CCCCC1)C1(CC2CC(c3cccc(Br)c3)=NO2)CCNCC1 (centres undefined),IC50,[11],> 20 µM (inactive)
same,AC50,[1],18.1 µM (active)
O=C(c1cc2ccccc2[nH]1)N1CCOCC1,IC50,[10],> 50 µM (not active)
O=C(Nc1ccc(N2CCOCC2)cc1)c1cnsn1,EC50,[12],3.19 µM (active)
same,EC50,[13],5.28 µM (active)
same,EC50,[14],1.9 µM (active)
same,AC50,[1],3.05 µM (active)
O=C(Nc1ccc(Cc2ccncc2)cc1)c1ccco1,IC50,[10],> 50 µM (not active)
O=C(NC1CCCCC1)C1CCN(c2nnnn2-c2ccccc2)CC1,IC50,[10],> 50 µM (not active)
Cc1cc(NS(=O)(=O)c2ccc(NC(=O)CSc3nnc(-c4ccco4)n3N)cc2)nc(C)n1,IC50,[10],> 50 µM (not active)
COc1cc2nc(=S)[nH]c(Nc3ccc(NC(C)=O)cc3)c2cc1OC,IC50,[11],> 20 µM (inactive)
same,IC50,[9],306 µM (active)
c1ccc(-c2cc3nc(NCC4CC4)nc(NCC4CCCCC4)c3s2)cc1,AC50,[3],2.67 µM (active)
same,AC50,[4],9.15 µM (active)
same,AC50,[5],3.12 µM (active)
CC1(C(=O)N/N=C/c2ccc([N+](=O)[O-])o2)CC1(Br)Br (centres undefined),EC50,[15],> 150 µM (inactive)
same,EC50,[16],2.46 µM (active)
same,AC50,[1],10.3 µM (active)
O=C(N/N=C/c1ccc(Br)s1)c1ccccc1[N+](=O)[O-],CC50,[17],> 40 µM (active)
same,IC50,[18],49.2 µM (active)
same,AC50,[19],17.8 µM (inconclusive)
O=C(N/N=C/c1ccccc1[N+](=O)[O-])c1ccc2[nH]cnc2c1,IC50,[10],2.34 µM (active)
O=C(N/N=C/c1ccc([N+](=O)[O-])o1)c1ccc(O)cc1 [NIFUROXAZIDE],AC50,[1],5.2 µM (active)
same,AC50,[20],> 380 µM (inactive)
same,EC50,[21],> 380 µM (inactive)
same,AC50,[22],5.18 µM (active)
